Assay results reported in patent US20110312015A1, “RAPID THROMBOCHEK TEST KIT BASED ON WHOLE BLOOD SCREENING TEST TO DETECT PLATELET HYPERAGGREGATION AT A TEMPERATURE OF 37ºC IN THE CLINICAL LABORATORY” (priority 2008, published 2011).
Read-outs that look alike come from different tables or passages of the source.

Tests used:
[1] = test system: hyperactive platelets; experiment: Assessment of efficacy of antiplatelet treatment in patients by Rapid Thrombochek test and microscopic method; format: in vivo, human; conditions: twenty myocardial infarction patients on daily aspirin for minimum 3 weeks; both methods
Description: Tests were carried out on healthy adults (male and female) and the normals were established. The test was carried out on patients of diabetes mellitus and known cases of myocardial infarction. […] All the smears were prepared by taking a drop of blood on slide and making a smear by cover slide method of smear preparation. All the smears were fixed in alcohol after drying and stained with […] stain and examined under oil immersion lense. Platelets free and in aggregates were counted and percentage of aggregation was worked out. TWENTY PATIENTS OF MYOCARDIAL INFARCTION ON DAILY ASPIRIN FOR MINIMUM PERIOD OF 3 WEEKS WERE TESTED BY […] WELL AS BY MICROSCOPIC METHOD FOR ASSESSMENT OF EFFICACY OF ANTIPLATELET TREATMENT.

[2] = test system: platelets in whole blood; conditions: 0.5 uM Epinephrine, 180 seconds
Description: Collecting a blood sample from an individual in EDTA anticoagulant vacutainer first and then taking blood in trisodium citrate-anticoagulant vacutainer with the same venipuncture and mixing both the samples with the respective anticoagulants at least 15 to 20 times by inversion and allowing EDTA sample to stand at room temperature for a minimum of 20 minutes and then within two hours of collection, the EDTA sample is analysed on an automated hematology analyser to determine the platelet count and appropriate aliquote of citrate sample is taken in a plastic cuvette with a magnetic bar and stirred for 3 minutes at 37° C. and a weak agonist of platelet aggregation in low concentration is added to stirred citrate sample and further stirred for another three minutes at 37° C. At the end of these last three minutes the stirred citrate agonist treated sample is analysed on an hematology analyser for platelet count. Difference between EDTA platelet count and agonist treated stirred citrate platelet count, percentage of platelet aggregation is calculated by dividing the difference by EDTA platelet count and multiplying it by 100.
All samples were collected in the morning when the subjects were fasting. Blood was collected in Plain vaccutainer then EDTA vacutainer by a clean venipuncture using a 20 G needle and then in the 3.8% Na citrate (1:10 dil) vacutainer. Both these anticoagulated blood samples were thoroughly mixed with respective anticoagulants by inversion (15 to 20 times) and the EDTA sample was made to stand at room temperature for 20 minutes after collection and only then analysed for platelet count measurements on the automated hematology analyser. Both samples were analysed within two hours of collection. […]

[3] = test system: platelets; experiment: Platelet aggregation in blood anticoagulated with D-Phe-Pro-Arg chloromethyl ketone dihydrochloride; format: cell-based; conditions: aggregation caused by addition of agonist
Description: Heparin, Na Citrate 3.2% can also be used instead of citrate 3.8% as anticoagulant to study platelet hyperaggregation.

## CC(=O)Oc1ccccc1C(=O)O [ASPIRIN, Aspirin]
[1]
  Efficacy of antiplatelet treatment (hyperactive platelets above normal range): LESS THAN EFFECTIVE IN FOUR OF THEM

## CNC[C@H](O)c1ccc(O)c(O)c1 [Epinephrine, Epinephrine bitartrate]
[2]; Diabetes patients
  Platelet Aggregation % at 180 sec. at 37° C., mean (SD): 35 (12) %
[2]; MI (myocardial infarction) patients
  Platelet Aggregation % at 180 sec. at 37° C., mean (SD): 29 (11) %
[2]; Normal group (healthy adults)
  Platelet Aggregation % at 180 sec. at 37° C., mean (SD): 14.5 (7) %

## D-Phe-Pro-Arg chloromethyl ketone dihydrochloride
[3]
  Effect on agonist-induced platelet aggregation when used as anticoagulant: substantial disaggregation of platelet aggregation
